Measured values from patent publication US8829034B2, “Compounds which modulate the CB2 receptor” (Boehringer Ingerlheim International GmbH, priority 2006, dated 2014).
pEC50: −log10 of the molar value. Read-outs that look alike come from different tables or passages of the source.

Biological target: T1, human CB2R (Homo sapiens, UniProt P34972)
T1 construct: host or cells: CHO cells
Assay: CB2R mediated modulation of cAMP synthesis
Format: cell-based
Settings: for agonistic activity: found through the use of the above described assays
Description: B. CB2R Mediated Modulation of cAMP Synthesis:
CHO cells expressing human CB2R (Euroscreen) were plated at a density of 5000 cells per well in 384 well plates and incubated overnight at 37° C. After removing the media, the cells were treated with test compounds diluted in stimulation buffer containing 1 mM IBMX, 0.25% BSA and 10 uM Forskolin. The assay was incubated for 30 minutes at 37° C. Cells were lysed and the cAMP concentration was measured using DiscoverX-XS cAMP kit, following the manufacturer's protocol. In this setting, agonists will decrease forskolin induced production of cAMP while inverse agonists will further increase forskolin induced production of cAMP. EC50 of agonists were calculated as follows. The maximal amount of cAMP produced by forskolin compared to the level of cAMP inhibited by 1 uM CP55940 is defined as 100%. The EC50 value of each test compound was determined as the concentration at which 50% of the forskolin-stimulated cAMP synthesis was inhibited. Data was analyzed using a four-parameter logistic model. (Model 205 of XLfit 4.0).

[1] = CHO cells expressing human CB2R, inhibition of forskolin-stimulated cAMP synthesis, compounds having agonist activity, read-out: CB2 EC50

T1 sequence (P34972 whole entry): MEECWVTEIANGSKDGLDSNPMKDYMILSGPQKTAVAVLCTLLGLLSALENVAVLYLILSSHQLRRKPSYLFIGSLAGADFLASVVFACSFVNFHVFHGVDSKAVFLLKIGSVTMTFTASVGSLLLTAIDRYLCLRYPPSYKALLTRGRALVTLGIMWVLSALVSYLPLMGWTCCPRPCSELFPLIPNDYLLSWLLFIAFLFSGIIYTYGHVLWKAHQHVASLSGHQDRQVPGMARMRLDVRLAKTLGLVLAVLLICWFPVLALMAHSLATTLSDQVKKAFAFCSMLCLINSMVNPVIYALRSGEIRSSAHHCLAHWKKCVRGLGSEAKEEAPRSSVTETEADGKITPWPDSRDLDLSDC

SMILES	pEC50	agonistic activity	pEC50 [1]
CC(C)(C)c1cc(NC(=O)C(C)(C)S(=O)(=O)Cc2ccc(F)cc2)on1 [N-(3-tert-Butyl-isoxazol-5-yl)-2-(4-fluoro-phenylmethanesulfonyl)-2-methyl-propionamide]	7.77	agonistic activity	–
CC(C)(C)c1cc(NC(=O)C(C)(C)S(=O)(=O)CC2CCC2)on1 [N-(3-tert-Butyl-isoxazol-5-yl)-2-cyclobutylmethanesulfonyl-2-methyl-propionamide]	8.43	agonistic activity	–
CC(C)(C)c1cc(NC(=O)C(C)(C)S(=O)(=O)C2CCCCC2)on1 [N-(3-tert-Butyl-isoxazol-5-yl)-2-cyclohexanesulfonyl-2-methyl-propionamide]	–	agonistic activity	–
CC(C)(C)c1cc(NC(=O)C(C)(C)S(=O)(=O)CC2CCCCC2)on1 [N-(3-tert-Butyl-isoxazol-5-yl)-2-cyclohexylmethanesulfonyl-2-methyl-propionamide]	10.00	agonistic activity	–
CC(C)(C)c1cc(NC(=O)C(C)(C)S(=O)(=O)C2CCCC2)on1 [N-(3-tert-Butyl-isoxazol-5-yl)-2-cyclopentanesulfonyl-2-methyl-propionamide]	9.05	agonistic activity	–
CC(C)(C)c1cc(NC(=O)C(C)(C)S(=O)(=O)CC2CC2)on1 [N-(3-tert-Butyl-isoxazol-5-yl)-2-cyclopropylmethanesulfonyl-2-methyl-propionamide]	7.90	agonistic activity	–
CC(C)CS(=O)(=O)C(C)(C)C(=O)Nc1cc(C(C)(C)C)no1 [N-(3-tert-Butyl-isoxazol-5-yl)-2-methyl-2-(2-methyl-propane-1-sulfonyl)-propionamide]	8.80	agonistic activity	–
CC(C)CCS(=O)(=O)C(C)(C)C(=O)Nc1cc(C(C)(C)C)no1 [N-(3-tert-Butyl-isoxazol-5-yl)-2-methyl-2-(3-methyl-butane-1-sulfonyl)-propionamide]	–	agonistic activity	10.40
CCCS(=O)(=O)C(C)(C)C(=O)Nc1cc(C(C)(C)C)no1 [N-(3-tert-Butyl-isoxazol-5-yl)-2-methyl-2-(propane-1-sulfonyl)-propionamide]	7.05	agonistic activity	–
CC(C)S(=O)(=O)C(C)(C)C(=O)Nc1cc(C(C)(C)C)no1 [N-(3-tert-Butyl-isoxazol-5-yl)-2-methyl-2-(propane-2-sulfonyl)-propionamide]	–	agonistic activity	–
CC(C)(C)c1cc(NC(=O)C(C)(C)S(=O)(=O)CC2CCCO2)on1 (stereo not shown) [N-(3-tert-Butyl-isoxazol-5-yl)-2-methyl-2-(tetrahydro-furan-2-ylmethanesulfonyl)-propionamide]	7.50	agonistic activity	–
CC(C)(C)c1cc(NC(=O)C(C)(C)S(=O)(=O)CC2CCOC2)on1 (stereo not shown) [N-(3-tert-Butyl-isoxazol-5-yl)-2-methyl-2-(tetrahydro-furan-3-ylmethanesulfonyl)-propionamide]	7.73	agonistic activity	–
CC(C)(C)c1cc(NC(=O)C(C)(C)S(=O)(=O)CC2CCCCO2)on1 (stereo not shown) [N-(3-tert-Butyl-isoxazol-5-yl)-2-methyl-2-(tetrahydro-pyran-2-ylmethanesulfonyl)-propionamide]	9.70	agonistic activity	–
CC(C)(C)c1cc(NC(=O)C(C)(C)S(=O)(=O)C2CCOCC2)on1 [N-(3-tert-Butyl-isoxazol-5-yl)-2-methyl-2-(tetrahydro-pyran-4-sulfonyl)-propionamide]	10.00	agonistic activity	–
CC(C)(C)c1cc(NC(=O)C(C)(C)S(=O)(=O)CC2CCOCC2)on1 [N-(3-tert-Butyl-isoxazol-5-yl)-2-methyl-2-(tetrahydro-pyran-4-ylmethanesulfonyl)-propionamide]	8.40	agonistic activity	–
CCCS(=O)(=O)C(C)(C)C(=O)Nc1cccc(C(C)(C)C)c1 [N-(3-tert-Butyl-phenyl)-2-methyl-2-(propane-1-sulfonyl)-propionamide]	–	agonistic activity	–
CC(C)S(=O)(=O)C(C)(C)C(=O)Nc1cccc(C(C)(C)C)c1 [N-(3-tert-Butyl-phenyl)-2-methyl-2-(propane-2-sulfonyl)-propionamide]	–	agonistic activity	–
CC(C)(C)c1cccc(NC(=O)C(C)(C)S(=O)(=O)CC2CCOCC2)c1 [N-(3-tert-Butyl-phenyl)-2-methyl-2-(tetrahydro-pyran-4-ylmethanesulfonyl)-propionamide]	7.84	agonistic activity	–
CCCS(=O)(=O)C(C)(C)C(=O)Nc1nc(C2CCCCC2)cs1 [N-(4-Cyclohexyl-thiazol-2-yl)-2-methyl-2-(propane-1-sulfonyl)-propionamide]	7.51	agonistic activity	–

SMILES	pEC50	agonistic activity	pEC50 [1]
CC(C)(C(=O)Nc1nc(C2CCCCC2)cs1)S(=O)(=O)CC1CCOCC1 [N-(4-Cyclohexyl-thiazol-2-yl)-2-methyl-2-(tetrahydro-pyran-4-ylmethanesulfonyl)-propionamide]	8.08	agonistic activity	–
CC(C)(C(=O)Nc1nc(C2CC2)cs1)S(=O)(=O)CC1CCOCC1 [N-(4-Cyclopropyl-thiazol-2-yl)-2-methyl-2-(tetrahydro-pyran-4-ylmethanesulfonyl)-propionamide]	–	agonistic activity	–
CCc1ccnc(NC(=O)C(C)(C)S(=O)(=O)CC2CCOCC2)c1 [N-(4-Ethyl-pyridin-2-yl)-2-methyl-2-(tetrahydro-pyran-4-ylmethanesulfonyl)-propionamide]	–	agonistic activity	–
CCCS(=O)(=O)C(C)(C)C(=O)Nc1ccc(C(C)(C)C)cc1 [N-(4-tert-Butyl-phenyl)-2-methyl-2-(propane-1-sulfonyl)-propionamide]	7.91	agonistic activity	–
CC(C)S(=O)(=O)C(C)(C)C(=O)Nc1ccc(C(C)(C)C)cc1 [N-(4-tert-Butyl-phenyl)-2-methyl-2-(propane-2-sulfonyl)-propionamide]	–	agonistic activity	–
CC(C)(C)c1ccc(NC(=O)C(C)(C)S(=O)(=O)CC2CCOCC2)cc1 [N-(4-tert-Butyl-phenyl)-2-methyl-2-(tetrahydro-pyran-4-ylmethanesulfonyl)-propionamide]	8.48	agonistic activity	–
CC(C)(C)c1csc(NC(=O)C(C)(C)S(=O)(=O)Cc2ccc(Cl)cc2)n1 [N-(4-tert-Butyl-thiazol-2-yl)-2-(4-chloro-phenylmethanesulfonyl)-2-methyl-propionamide]	–	agonistic activity	–
CC(C)S(=O)(=O)C(C)C(=O)Nc1nc(C(C)(C)C)cs1 (stereo not shown) [N-(4-tert-Butyl-thiazol-2-yl)-2-(propane-2-sulfonyl)-propionamide]	–	agonistic activity	–
CC(C)(C)c1csc(NC(=O)C(C)(C)S(=O)(=O)C2CCCC2)n1 [N-(4-tert-Butyl-thiazol-2-yl)-2-cyclopentanesulfonyl-2-methyl-propionamide]	7.72	agonistic activity	–
CC(C)(C)c1csc(NC(=O)C(C)(C)S(C)(=O)=O)n1 [N-(4-tert-Butyl-thiazol-2-yl)-2-methanesulfonyl-2-methyl-propionamide]	–	agonistic activity	–
CC(C)(C)c1csc(NC(=O)C(C)(C)S(=O)(=O)C(C)(C)C)n1 [N-(4-tert-Butyl-thiazol-2-yl)-2-methyl-2-(2-methyl-propane-2-sulfonyl)-propionamide]	7.21	agonistic activity	–
CCCS(=O)(=O)C(C)(C)C(=O)Nc1nc(C(C)(C)C)cs1 [N-(4-tert-Butyl-thiazol-2-yl)-2-methyl-2-(propane-1-sulfonyl)-propionamide]	7.72	agonistic activity	–
CC(C)S(=O)(=O)C(C)(C)C(=O)Nc1nc(C(C)(C)C)cs1 [N-(4-tert-Butyl-thiazol-2-yl)-2-methyl-2-(propane-2-sulfonyl)-propionamide]	–	agonistic activity	–
CC(C)(C)c1csc(NC(=O)C(C)(C)S(=O)(=O)C2CCOCC2)n1 [N-(4-tert-Butyl-thiazol-2-yl)-2-methyl-2-(tetrahydro-pyran-4-sulfonyl)-propionamide]	–	agonistic activity	7.91
CC(C)(C)c1csc(NC(=O)C(C)(C)S(=O)(=O)CC2CCOCC2)n1 [N-(4-tert-Butyl-thiazol-2-yl)-2-methyl-2-(tetrahydro-pyran-4-ylmethanesulfonyl)-propionamide]	–	agonistic activity	–
CC(C)C(C(=O)Nc1nc(C(C)(C)C)cs1)S(=O)(=O)C(C)C (stereo not shown) [N-(4-tert-Butyl-thiazol-2-yl)-3-methyl-2-(propane-2-sulfonyl)-butyramide]	–	agonistic activity	–
CCCS(=O)(=O)C(C)(C)C(=O)Nc1nc(-c2ccccc2)c(CC)s1 [N-(5-Ethyl-4-phenyl-thiazol-2-yl)-2-methyl-2-(propane-1-sulfonyl)-propionamide]	7.97	agonistic activity	–
CCc1sc(NC(=O)C(C)(C)S(=O)(=O)CC2CCOCC2)nc1-c1ccccc1 [N-(5-Ethyl-4-phenyl-thiazol-2-yl)-2-methyl-2-(tetrahydro-pyran-4-ylmethanesulfonyl)-propionamide]	8.70	agonistic activity	–
